Experimental data: ChEMBL document CHEMBL1131856, “Wasalexins A and B, new phytoalexins from wasabi: isolation, synthesis, and antifungal activity” (1999)

Key:
Plenodomus lingam [1] = test: Antifungal activity against P. Lingam by spore germination assay after 24 hours; range is 40-50%; type: functional
Plenodomus lingam [2] = test: Antifungal activity against P. Lingam by spore germination assay after 24 hours; No detectable inhibitory activity; type: functional, organism-based

`COC(=O)c1cn(OC)c2ccccc12` showed an Inhibition (Plenodomus lingam [1]) of 50%.
`CON1C(=O)/C(=C/N=C(SC)SC)c2ccccc21` was tested, and the Inhibition (Plenodomus lingam [1]) was 50%.
In the case of `CSC(=N/C=C1/C(=O)N(C)c2ccccc21)SC`, the Activity (Plenodomus lingam [2]) is reported as “No detectable inhibitory activity”.
